Series [1] has as its target T1, VMAT2 (Rattus norvegicus (Rat), UniProt Q01827). In words: [3H]Dopamine ([3H]DA) uptake assay, vesicular preparation. It is filed as biochemical.
The next series in a line: in vitro. The note with it: female, Sprague-Dawley, rat, microsomes, pH 7.4, Microsomal stability assays: Clearance.
Series [2] can be described thus: Microsomal stability assay, rat liver microsomes. Particulars: female, Sprague-Dawley, rat, liver microsomes, pH 7.4, Microsomal stability assays: Half-life. Background: Liver microsomes are a subcellular fraction often used to study metabolism.
Another series concerns the target hERG channel (Homo sapiens (Human), UniProt Q12809). In words: [3H]Dofetilide binding assay, HEK-293 cell membrane preparation. Particulars: [3H]dofetilide, HEK-293 cell membranes; read-out: hERG Binding: Mean Ki ± Standard Deviation.
For a further series, the system named is rat striatal slices. Particulars: cited from earlier work.
For series [3] the following is noted: in vivo; cited from earlier work.
For series [4], the target named is T1, VMAT2. Particulars: rat brain vesicles; read-out: inhibition of [3H]DA uptake into rat brain vesicles via VMAT2 (Ki); cited from earlier work.
The target in series [5] is hERG channel (selectivity at VMAT2 over hERG) (Homo sapiens (Human), UniProt Q12809). In words: [3H]Dofetilide binding assay, HEK-293 cell membrane preparation. The note with it: human, pH 7.4.
Series [6] addresses dopamine transporter (DAT) (Rattus norvegicus (Rat), UniProt P23977). Briefly: [3H]DA uptake assay, synaptosomal preparation. In kind it is biochemical. The method, then: (§1) [^3H]DA and [^3H]5-HT uptake into striatal synaptosomes was determined to evaluate compound inhibition of the dopamine transporter (DAT) and the serotonin transporter (SERT), respectively.
Series [7] concerns the target serotonin transporter (SERT) (Rattus norvegicus (Rat), UniProt P31652). Briefly: [3H]5-HT uptake assay, synaptosomal preparation. In kind it is biochemical. The method, then: as §1
Another series relates to rats. Briefly: METH-stimulated locomotor activity in rats. It is filed as in vivo, rat. Particulars: s.c.
Setting [8] is: [3H]DA uptake, rat, read-out: VMAT2 (rat) Inhibition: Mean Ki ± Standard Deviation.
Where [9] appears, read: [3H]DA uptake (Ki) VMAT2, rat striatal synaptic vesicles.

Like-named read-outs stand apart in the source and are kept apart here.

Sequence of hERG channel (Q12809 whole entry): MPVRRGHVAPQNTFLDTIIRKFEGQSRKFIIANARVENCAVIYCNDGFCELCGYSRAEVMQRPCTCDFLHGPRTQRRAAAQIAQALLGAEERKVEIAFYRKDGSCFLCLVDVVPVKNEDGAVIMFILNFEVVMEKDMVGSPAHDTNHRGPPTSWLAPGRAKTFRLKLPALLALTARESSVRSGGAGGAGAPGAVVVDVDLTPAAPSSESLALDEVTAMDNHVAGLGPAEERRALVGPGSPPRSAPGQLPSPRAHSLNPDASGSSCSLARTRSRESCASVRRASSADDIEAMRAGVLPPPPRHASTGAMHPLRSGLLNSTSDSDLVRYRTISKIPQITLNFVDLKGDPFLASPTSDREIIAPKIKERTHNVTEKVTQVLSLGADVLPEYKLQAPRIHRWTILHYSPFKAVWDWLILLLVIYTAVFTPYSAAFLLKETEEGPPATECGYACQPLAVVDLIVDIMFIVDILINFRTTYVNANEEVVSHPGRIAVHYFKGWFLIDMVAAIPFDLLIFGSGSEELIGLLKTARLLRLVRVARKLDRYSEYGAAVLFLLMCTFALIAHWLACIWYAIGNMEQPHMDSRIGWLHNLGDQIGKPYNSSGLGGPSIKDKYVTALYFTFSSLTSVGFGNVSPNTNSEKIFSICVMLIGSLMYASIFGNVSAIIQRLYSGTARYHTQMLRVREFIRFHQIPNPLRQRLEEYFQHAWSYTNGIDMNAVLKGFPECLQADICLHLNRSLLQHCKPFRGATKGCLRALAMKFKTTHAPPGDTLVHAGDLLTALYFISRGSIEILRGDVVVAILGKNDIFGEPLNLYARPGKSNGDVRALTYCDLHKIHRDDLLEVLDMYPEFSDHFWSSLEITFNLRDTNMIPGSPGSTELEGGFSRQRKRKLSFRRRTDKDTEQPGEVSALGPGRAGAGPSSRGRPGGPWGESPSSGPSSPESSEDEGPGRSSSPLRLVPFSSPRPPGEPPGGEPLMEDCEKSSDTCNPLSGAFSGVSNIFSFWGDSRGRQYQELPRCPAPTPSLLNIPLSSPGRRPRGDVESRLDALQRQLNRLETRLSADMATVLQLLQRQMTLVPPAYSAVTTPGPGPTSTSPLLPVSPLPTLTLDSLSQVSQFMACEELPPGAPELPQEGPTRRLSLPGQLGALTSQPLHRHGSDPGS
Sequence of hERG channel (selectivity at VMAT2 over hERG) (Q12809 whole entry): as above

One may read the Ki as a dissociation constant, usually derived from enzyme kinetics or from competition with a known ligand. One may read the CLint scaled as the rate of metabolic loss divided by the concentration. Higher therefore signals faster metabolism. As usually defined, the half-life is how long it takes for the measured level to halve. As for `Fc1ccc(CCCNC(Cc2ccc(F)cc2)C(F)F)cc1` (stereo not drawn) [Compound 81], the Ki on VMAT2 [1] (setting [8]) is 386 ± 194 nM. Besides, the CLint scaled at 0.08 µM in “in vitro” amounted to 83.2 mL/min/kg. This compound also had a half-life at 0.08 µM in [2] of 36 min.
Consider `FCC(Cc1ccc(F)cc1)NCCCc1ccnc2ccccc12` (stereo not drawn) [Compound 148], for which the Ki on VMAT2 [1] (setting [8]) came out at 70.3 ± 13 nM; on hERG channel, 4.7 ± 0.373 µM. Also, the CLint scaled at 0.08 µM in “in vitro” was over 400 mL/min/kg. For the same compound, in [2], the half-life at 0.08 µM was under 6 min.
Take `FCC(Cc1ccc(-c2cccnc2)cc1)NCCCc1ccc(F)cc1` (stereo not drawn) [Compound 83]: the Ki at VMAT2 [1] (setting [8]) came out at 27.7 ± 13.9 nM; on hERG channel, 6.75 ± 3.62 µM. Also, the CLint scaled at 0.08 µM in the series “in vitro” worked out at 113 mL/min/kg. In [2], this compound gave a half-life at 0.08 µM of 24 min.
Consider `CN1[C@@H](CCc2ccccc2)CCC[C@H]1CCc1ccccc1` [Lobelane], for which, in the series on rat striatal slices, the “METH-evoked DA overflow” value is “decreases”. Further, the METH self-administration entry in [3] is reported as “decreases”.
As to `c1ccc(CC[C@H]2CCC[C@@H](CCc3ccccc3)N2)cc1` [Nor-Lobelane], the Ki on VMAT2 [4] was 44 nM.
Consider `FCC(Cc1ccc(F)cc1)NCCCc1ccncc1` (stereo not drawn) [Compound 142], for which the Ki at VMAT2 [1] (setting [8]) came to 117 ± 18.7 nM. In “in vitro”, this compound came in with a CLint scaled at 0.08 µM of 38.3 mL/min/kg. This compound also had a half-life at 0.08 µM in series [2] of 30 min.
In the case of `Nc1ccc(CC(CF)NCCCc2ccc(F)cc2)cc1` (stereo not drawn) [Compound 79, [N-3-(4-fluorophenyl)-propan-1-yl]-3-(4-aminophenyl)-1-fluoro-2-propylamine], the Ki on VMAT2 [1] (setting [8]) was determined as 19.8 ± 9.29 nM; on hERG channel it was 3.44 ± 0.983 µM. The compound further showed a CLint scaled at 0.08 µM in the series “in vitro” of 21.1 mL/min/kg. Moreover, the half-life at 0.08 µM in series [2] was 132 min.
For the compound `COc1ccc(CCCN[C@H](C)Cc2ccccc2)cc1.Cl` [Compound 9], the Ki at VMAT2 [1] (Ki value at VMAT2, text value) came to 8.71 ± 3.65 nM; on VMAT2 [1] (setting [9]), 8.7 ± 6.5 nM. In addition, the selectivity ratio at 1 hr in series [5] was over 30. Besides, the “selectivity at VMAT2 over DAT” value in [6] is over 30 fold. For the same compound, the “selectivity at VMAT2 over SERT” value in series [7] was over 30 fold. Moreover, the METH-stimulated locomotor activity entry in the series on rats (3 mg/kg) is “significant reduction”.
`COc1ccc(CCCN[C@@H](C)Cc2ccccc2)cc1.Cl` [Compound 10]: the Ki at VMAT2 [1] (Ki value at VMAT2, text value) amounted to 25.5 ± 3.57 nM; at VMAT2 [1] (setting [9]), 26 ± 3.6 nM. For the same compound, the selectivity ratio at 1 hr in series [5] is over 30. Further, the “selectivity at VMAT2 over DAT” value in series [6] is recorded as over 30 fold. Also, in [7], the “selectivity at VMAT2 over SERT” value was over 30 fold. For the same compound, the METH-stimulated locomotor activity entry in the series on rats (17 mg/kg) is “significant reduction”.

(Values after patent US11999676B2, “Vesicular monoamine transporter-2 ligands and their use in the treatment of psychostimulant abuse” (priority 2016, dated 2024).)
